Data: the NIST ThermoML archive (doi:10.1016/j.jct.2007.10.004)
Numbers after ± are expanded uncertainties.

Legend:
[1] = Crystal
[2] = Solid-liquid equilibrium temperature; settings: Crystal
[3] = Molar enthalpy of transition or fusion; settings: Crystal; DSC

Work on O=C(O)C1CCCCC1 [cyclohexanecarboxylic acid] yielded a Normal melting temperature ([1]; DTA) of 29.8 ± 0.5 °C, a Solid-liquid equilibrium temperature ([2]; 800 kPa, visual observation) of 303.15 ± 0.26 K and a Solid-liquid equilibrium temperature ([2]; 31000 kPa, visual observation) of 313.15 ± 0.52 K. The Solid-liquid equilibrium temperature ([2]; 63000 kPa, visual observation) was 323.15 ± 0.9 K, the Solid-liquid equilibrium temperature ([2]; 92000 kPa, visual observation) was 333.15 ± 1.3 K and the Solid-liquid equilibrium temperature ([2]; 121000 kPa, visual observation) was 343.15 ± 1.7 K. For the same compound, the Solid-liquid equilibrium temperature ([2]; 150000 kPa, visual observation) was 353.15 ± 2.1 K and the “Molar enthalpy of transition or fusion” value [3] was 2.2 ± 0.0645 kcal/mol.
In the case of CC(=O)OC1CCCCC1 [cyclohexyl ethanoate], the Normal melting temperature ([1]; DTA) is reported as -51.70 ± 0.4 °C and the “Molar enthalpy of transition or fusion” value [3] is reported as 0.809 ± 0.0406 kcal/mol.
With O=C(O)CC1CCCCC1 [cyclohexylethanoic acid] the Normal melting temperature ([1]; DTA) was 28.8 ± 0.4 °C and the “Molar enthalpy of transition or fusion” value [3] was 3.3 ± 0.086 kcal/mol.
Compound CC(=O)OCCC1CCCCC1 [cyclohexylethyl acetate] has a Normal melting temperature ([1]; DTA) of -51.70 ± 0.39 °C.
CCCCCCCCO [octan-1-ol] showed a Normal melting temperature [1] of -14.60 ± 0.62 °C, a Solid-liquid equilibrium temperature ([2]; 216000 kPa, Closed cell (Static) method) of 303.15 ± 1.7 K and a Solid-liquid equilibrium temperature ([2]; 268000 kPa, Closed cell (Static) method) of 313.15 ± 1.9 K. It also gave a Solid-liquid equilibrium temperature ([2]; 329000 kPa, Closed cell (Static) method) of 323.15 ± 2 K, a Solid-liquid equilibrium temperature ([2]; 400000 kPa, Closed cell (Static) method) of 333.15 ± 2.2 K and a Solid-liquid equilibrium temperature ([2]; 480000 kPa, Closed cell (Static) method) of 343.15 ± 2.3 K. The Solid-liquid equilibrium temperature ([2]; 569000 kPa, Closed cell (Static) method) was 353.15 ± 2.6 K.
